Measured values from patent US8241648B2, “Amphiphilic or lipophilic polar functionalized fullerenes and their uses” (Luna Innovations Incorporated, priority 2007, dated 2012).

Assay: Radical addition of an unstable nitrogen:peroxide radical (immobilized activated amine, butanone peroxide, xylene), measured by HPLC
Conditions: control anti-oxidant in xylene, same conditions
Method: An unstable nitrogen radical was made by adding butanone peroxide to nitrogen immobilized on a solid substrate in the presence of either C70, C60 or, as a control, the anti-oxidant Vitamin E in xylene. Radical addition of the substrate to the immobilized, activated amine is measured by HPLC. […] 74% of the C70 was bound to the nitrogen while only 27% of the C60 was bound.

Vitamin E
reaction with the unstable nitrogen radical: did not react at all
